Data as given in patent publication US12662491B2 (Redona Therapeutics, Inc., priority 2020, dated 2026).

The molecules below were run against T1, Zcchc11 enzyme (Homo sapiens, UniProt Q5TAX3) (assay: TUTase assay (Zcchc11 assay, Lin28a-dependent polyuridylation of pre-let-7)). Conditions: Lin28a-dependent Zcchc11 (Z11) TUTase assay; read-out: Potency Lin28a-dep Z11 IC50.
T1 construct: made in house; host or cells: HEK293 cells (Zcchc11); E. coli Rosetta II (LIN28A)
T1 sequence (Q5TAX3 212-1420): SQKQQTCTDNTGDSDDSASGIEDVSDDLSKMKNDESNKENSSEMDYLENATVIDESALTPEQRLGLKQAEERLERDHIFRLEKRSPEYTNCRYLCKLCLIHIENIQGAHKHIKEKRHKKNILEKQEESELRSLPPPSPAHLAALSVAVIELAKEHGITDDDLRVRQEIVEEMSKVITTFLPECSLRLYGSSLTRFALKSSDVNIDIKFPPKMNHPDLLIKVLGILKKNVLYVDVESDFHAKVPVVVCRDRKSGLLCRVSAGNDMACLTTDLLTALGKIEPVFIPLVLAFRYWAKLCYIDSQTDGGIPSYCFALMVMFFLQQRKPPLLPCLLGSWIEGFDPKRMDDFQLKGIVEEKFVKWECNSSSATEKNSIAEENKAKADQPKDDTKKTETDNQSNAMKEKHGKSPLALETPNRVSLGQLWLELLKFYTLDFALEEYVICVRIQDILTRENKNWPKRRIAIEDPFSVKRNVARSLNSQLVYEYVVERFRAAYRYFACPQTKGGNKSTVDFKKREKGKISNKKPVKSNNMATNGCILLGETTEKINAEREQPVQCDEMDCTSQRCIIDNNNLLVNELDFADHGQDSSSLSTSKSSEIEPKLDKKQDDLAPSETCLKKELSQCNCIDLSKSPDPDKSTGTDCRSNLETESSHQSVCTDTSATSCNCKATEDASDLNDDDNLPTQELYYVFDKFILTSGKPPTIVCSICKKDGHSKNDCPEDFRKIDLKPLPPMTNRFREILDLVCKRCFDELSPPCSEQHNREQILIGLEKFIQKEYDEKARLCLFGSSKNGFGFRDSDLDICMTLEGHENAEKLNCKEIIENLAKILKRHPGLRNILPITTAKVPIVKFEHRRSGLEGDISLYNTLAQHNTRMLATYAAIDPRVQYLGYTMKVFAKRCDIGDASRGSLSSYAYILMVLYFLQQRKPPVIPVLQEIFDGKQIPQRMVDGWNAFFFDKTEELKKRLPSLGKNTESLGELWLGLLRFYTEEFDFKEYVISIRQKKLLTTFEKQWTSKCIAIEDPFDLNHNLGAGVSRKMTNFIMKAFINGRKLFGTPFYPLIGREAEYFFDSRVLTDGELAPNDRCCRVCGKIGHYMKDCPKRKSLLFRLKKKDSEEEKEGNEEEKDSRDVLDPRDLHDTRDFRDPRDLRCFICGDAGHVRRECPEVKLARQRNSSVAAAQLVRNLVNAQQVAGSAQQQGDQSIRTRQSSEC
Format: biochemical
Summary of the method: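 Human Zcchc11 residues 212-1420 (HEK293-expressed, MBP tag cleaved, C-terminal FLAG) at 0.2 nM, with 10 nM full-length human LIN28A and 2 nM 5′-fluorescein pre-let-7, preincubated with compound 30 min at room temperature. Reaction started with 5 uM UTP plus 4 nM 3′-rhodamine A20 quench probe; fluorescein loss read kinetically, IC50 from initial rates.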

IC50, 1000 to 10000 nM:
CNCCN1CCC(n2cc(C(=O)O)c(=O)c3cc(Cl)c(N4CCC[C@@H]4COc4ncccc4Cl)cc32)CC1 [Example 502, (R)-6-chloro-7-(2-(((3-chloropyridin-2-yl)oxy)methyl)pyrrolidin-1-yl)-1-(1-(2-(methyl-amino)ethyl)piperidin-4-yl)-4-oxo-1,4-dihydroquinoline-3-carboxylic acid]
O=C(O)c1cn(-c2cnc(OCc3ccccc3)cn2)c2cc(N3CCC[C@@H]3COc3ncccc3Cl)c(Cl)cc2c1=O [Example 503, (R)-1-(5-(benzyloxy)pyrazin-2-yl)-6-chloro-7-(2-(((3-chloropyridin-2-yl)oxy)methyl)pyrrolidin-1-yl)-4-oxo-1,4-dihydroquinoline-3-carboxylic acid]

IC50, ≤ 1000 nM:
Cc1cc2c(=O)c(C(=O)O)cn(-c3cnccn3)c2cc1N1CCC[C@@H]1COc1ncccc1Cl [Example 487, (R)-7-(2-(((3-chloropyridin-2-yl)oxy)methyl)pyrrolidin-1-yl)-6-methyl-4-oxo-1-(pyrazin-2-yl)-1,4-dihydroquinoline-3-carboxylic acid]
N#Cc1cc2c(=O)c(C(=O)O)cn(-c3ccc(N4CCC4)nc3)c2cc1N1CCC[C@@H]1COc1ncccc1Cl [Example 488, 1-[6-(azetidin-1-yl)pyridin-3-yl]-7-[(2R)-2-{[(3-chloropyridin-2-yl)oxy)methyl}pyrrolidin-1-yl]-6-cyano-4-oxo-1,4-dihydroquinoline-3-carboxylic acid]
O=C(O)c1cn(-c2cccnc2)c2cc(N3CCC[C@@H]3COc3ncccc3Cl)c(Cl)cc2c1=O [Example 489, (R)-6-chloro-7-(2-(((3-chloropyridin-2-yl)oxy)methyl)pyrrolidin-1-yl)-4-oxo-1-(pyridin-3-yl)-1,4-dihydroquinoline-3-carboxylic acid]
O=C(O)c1cn(-c2ccncc2)c2cc(N3CCC[C@@H]3COc3ncccc3Cl)c(Cl)cc2c1=O [Example 490, (R)-6-chloro-7-(2-(((3-chloropyridin-2-yl)oxy)methyl)pyrrolidin-1-yl)-4-oxo-1-(pyridin-4-yl)-1,4-dihydroquinoline-3-carboxylic acid]
O=C(O)c1cn(-c2ccc(N3CCC3)nc2)c2cc(N3CCC[C@@H]3COc3ncccc3Cl)c(Br)cc2c1=O [Example 491, (R)-1-(6-(azetidin-1-yl)pyridin-3-yl)-6-bromo-7-(2-(((3-chloropyridin-2-yl)oxy)methyl)pyrrolidin-1-yl)-4-oxo-1,4-dihydroquinoline-3-carboxylic acid]
CN(C)CCNc1cnc(-n2cc(C(=O)O)c(=O)c3cc(Cl)c(N4CCC[C@@H]4COc4ncccc4Cl)cc32)cn1 [Example 492, (R)-6-chloro-7-(2-(((3-chloropyridin-2-yl)oxy)methyl)pyrrolidin-1-yl)-1-(5-((2-(dimethylamino)ethyl)amino)pyrazin-2-yl)-4-oxo-1,4-dihydroquinoline-3-carboxylic acid]
CS(=O)(=O)Nc1cnc(-n2cc(C(=O)O)c(=O)c3cc(Cl)c(N4CCC[C@@H]4COc4ncccc4Cl)cc32)cn1 [Example 493, (R)-6-chloro-7-(2-(((3-chloropyridin-2-yl)oxy)methyl)pyrrolidin-1-yl)-1-(5-(methyl-sulfonamido)pyrazin-2-yl)-4-oxo-1,4-dihydroquinoline-3-carboxylic acid]
COCCNC1CN(c2ccc(-n3cc(C(=O)O)c(=O)c4cc(Cl)c(N5CCC[C@@H]5COc5ncccc5Cl)cc43)cn2)C1 [Example 494, (R)-6-chloro-7-(2-(((3-chloropyridin-2-yl)oxy)methyl)pyrrolidin-1-yl)-1-(6-(3-((2-methoxyethyl)amino)azetidin-1-yl)pyridin-3-yl)-4-oxo-1,4-dihydroquinoline-3-carboxylic acid]
COCCN(C)C1CN(c2ccc(-n3cc(C(=O)O)c(=O)c4cc(Cl)c(N5CCC[C@@H]5COc5ncccc5Cl)cc43)cn2)C1 [Example 495, (R)-6-chloro-7-(2-(((3-chloropyridin-2-yl)oxy)methyl)pyrrolidin-1-yl)-1-(6-(3-((2-methoxyethyl) (methyl)amino)azetidin-1-yl)pyridin-3-yl)-4-oxo-1,4-dihydroquinoline-3-carboxylic acid]
O=C(O)c1cn(-c2ccc(N3CC4(CNC4)C3)nc2)c2cc(N3CCC[C@@H]3COc3ncccc3Cl)c(Cl)cc2c1=O [Example 496, (R)-1-(6-(2,6-diazaspiro[3.3]heptan-2-yl)pyridin-3-yl)-6-chloro-7-(2-(((3-chloropyridin-2-yl)oxy)methyl)pyrrolidin-1-yl)-4-oxo-1,4-dihydroquinoline-3-carboxylic acid]
O=C(O)c1cn(-c2cncnc2)c2cc(N3CCC[C@@H]3COc3ncccc3Cl)c(Cl)cc2c1=O [Example 497]
O=C(O)c1cn(-c2cccnn2)c2cc(N3CCC[C@@H]3COc3ncccc3Cl)c(Cl)cc2c1=O [Example 498, (R)-6-chloro-7-(2-(((3-chloropyridin-2-yl)oxy)methyl)pyrrolidin-1-yl)-4-oxo-1-(pyridazin-3-yl)-1,4-dihydroquinoline-3-carboxylic acid]
O=C(O)c1cn(-c2ccccn2)c2cc(N3CCC[C@@H]3COc3ncccc3Cl)c(Cl)cc2c1=O [Example 499, (R)-6-chloro-7-(2-(((3-chloropyridin-2-yl)oxy)methyl)pyrrolidin-1-yl)-4-oxo-1-(pyridin-2-yl)-1,4-dihydroquinoline-3-carboxylic acid]
O=C(O)c1cn(-c2ncccn2)c2cc(N3CCC[C@@H]3COc3ncccc3Cl)c(Cl)cc2c1=O [Example 500, (R)-6-chloro-7-(2-(((3-chloropyridin-2-yl)oxy)methyl)pyrrolidin-1-yl)-4-oxo-1-(pyrimidin-2-yl)-1,4-dihydroquinoline-3-carboxylic acid]
Cn1ccnc1OC[C@H]1CCCN1c1cc2c(cc1Cl)c(=O)c(C(=O)O)cn2-c1ccc(N2CCC2)nc1 [Example 501, (R)-1-(6-(azetidin-1-yl)pyridin-3-yl)-6-chloro-7-(2-(((1-methyl-1H-imidazol-2-yl)oxy)methyl)pyrrolidin-1-yl)-4-oxo-1,4-dihydroquinoline-3-carboxylic acid]
O=C(O)c1cn(-c2ccnnc2)c2cc(N3CCC[C@@H]3COc3ncccc3Cl)c(Cl)cc2c1=O [Example 504, 6-chloro-7-[(2R)-2-{[(3-chloropyridin-2-yl)oxy]methyl}pyrrolidin-1-yl]-4-oxo-1-(pyridazin-4-yl)-1,4-dihydroquinoline-3-carboxylic acid]
O=C(O)c1cn(-c2cc3cc[nH]c3cc2F)c2cc(N3CCC[C@@H]3COc3ncccc3Cl)c(Cl)cc2c1=O [Example 505, (R)-6-chloro-7-(2-(((3-chloropyridin-2-yl)oxy)methyl)pyrrolidin-1-yl)-1-(6-fluoro-1H-indol-5-yl)-4-oxo-1,4-dihydroquinoline-3-carboxylic acid]
CNc1cnc(-n2cc(C(=O)O)c(=O)c3cc(Cl)c(N4CCC[C@@H]4COc4ncccc4Cl)cc32)cn1 [Example 506, (R)-6-chloro-7-(2-(((3-chloropyridin-2-yl)oxy)methyl)pyrrolidin-1-yl)-1-(5-(methylamino)pyrazin-2-yl)-4-oxo-1,4-dihydroquinoline-3-carboxylic acid]
O=C(O)c1cn(-c2ccc(N3CC(N4CCC4)C3)nc2)c2cc(N3CCC[C@@H]3COc3ncccc3Cl)c(Cl)cc2c1=O [Example 507, (R)-1-(6-([1,3′-biazetidin]-1′-yl)pyridin-3-yl)-6-chloro-7-(2-(((3-chloropyridin-2-yl)oxy)methyl)pyrrolidin-1-yl)-4-oxo-1,4-dihydroquinoline-3-carboxylic acid]
CN1CCn2nc(-n3cc(C(=O)O)c(=O)c4cc(Cl)c(N5CCC[C@@H]5COc5ncccc5Cl)cc43)cc2C1 [Example 508, (R)-6-chloro-7-(2-(((3-chloropyridin-2-yl)oxy)methyl)pyrrolidin-1-yl)-1-(5-methyl-4,5,6,7-tetrahydropyrazolo [1,5-a]pyrazin-2-yl)-4-oxo-1,4-dihydroquinoline-3-carboxylic acid]
